Measured values published in patent US20040097598A1 (priority 2001, published 2004).
Where two headings read alike, the source gives them in different places.

Columns and labels:
[1] = system: neurological deficit (rotorod); test: rotorod toxicity test; assay type: in vivo; details: dose giving rotorod failure in 50% subjects, about 25 min after intraperitoneal injection in oil, male CF-1 mice
Procedure: (§1) Male CF-1 mice, weighing 28-30 g, were used as subjects (Charles River Canada, La Prairie, Quebec, Canada). Three to five subjects per drug dose were used to prescreen each compound for anticonvulsant activity. Prescreening involved injecting subjects with the drug at doses of 3, 6 mmol/kg and assessing activity and toxicity 30 min later. Promising compounds progressed to dose-response studies, which employed at least 50 subjects, 10 subjects per dose.
(§2) Compounds were dissolved in oil and injected intraperitoneally.
The test was administered about 25 minutes after the injection. In brief, the diameter of a rotating rod was about 5 cm and the number of revolutions per minute was set at 6 rpm. Mice were placed on the rod so that it was rotated toward the animal. Animals that were not able to maintain their equilibrium on the rod for 1 min were again put on the rod a further two times.
Both dose-response and toxicity data were fitted using non-linear sigmoidal dose-response model with variable slope: Y=Bottom+(Top-Bottom)/(1+10^((LogED50—X)*HillSlope)), where Bottom, Top, HillSlope and ED50 were the fitting parameters, X was the logarithm of drug concentration, and Y was the response parameter. […] Therapeutic index (TI) was calculated as a ratio of TD50/ED50.

[2] = system: MES seizure; test: maximal electroshock (MES) seizure test; assay type: in vivo, mice; details: for TI (therapeutic index): ratio TD50 (rotorod)/ED50 (MES); for TI (therapeutic index) / anticonvulsant activity: mice; for anticonvulsant activity / LogED50: MES test; for anticonvulsant activity: intraperitoneal; for LogED50: best-fit value, C5 vs C7 comparison
Procedure: as §1, §2
Thirty minutes after drug injection, the MES seizure test was administered. We used the procedure of Krall et al. (1978). In brief, a seizure was induced using the electrical current applied via corneal electrodes. The current was set to 50 mA with a 60 Hz sine wave pulse configuration and train duration of 0.2 sec. Seizure protection was defined in this model as a failure to extend the hind limbs to an angle greater than 90 degrees during the tonic period of the convulsion.
Data analysis was performed using GraphPad Prizm software package version 3.02 for Windows (GraphPad Software Inc, San Diego, Calif., USA). Both dose-response and toxicity data were fitted using non-linear sigmoidal dose-response model with variable slope: Y=Bottom+(Top-Bottom)/(1+10^((LogED50—X)*HillSlope)), where Bottom, Top, HillSlope and ED50 were the fitting parameters, X was the logarithm of drug concentration, and Y was the response parameter. ED50 and TD50, which are the concentrations that give a response in 50% subjects in seizure and toxicity tests, were determined as best-fit values. Therapeutic index (TI) was calculated as a ratio of TD50/ED50.

[3] = system: thujone model of epileptic seizures; details: cited from earlier work
[4] = system: pentylenetetrazole seizures; test: pentylenetetrazole seizures after intraperitoneal acetoacetate; assay type: in vivo; details: 15-30 min after intraperitoneal injection, mice or rats
Description: (§3) Experiments of Keith and Helmholz involving the thujone model of epileptic seizures seemed to support Wilder's hypothesis (Helmholz & Keith 1930, Keith 1931, 1932a,b). […] The Keith's results and conclusions about anticonvulsant activity of acetoacetate are debatable. […] At the same time, acetoacetate easily decomposes to form acetone.

[5] = system: maximal electroshock seizures; test: maximal electroshock seizures after intraperitoneal acetoacetate; assay type: in vivo; details: 15-30 min after intraperitoneal injection, mice or rats
Description: as §3

[6] = system: convulsions induced by isonicotinic acid; details: pretreatment, rats; cited from earlier work
[7] = system: AY-9944-induced seizures; test: AY-9944 model, acetone (FIG. 3); assay type: in vivo
Description: (§4) The amygdala-kindled focus is a model of complex partial seizures in humans (Albright & Burnham 1980). These are notoriously drug resistant.
(§5) The AY-9944-induced seizures were quantified by measurement of the onset-to-offset durations of the slow spike-and-wave discharge (SWD) combined over the 20-min intervals. In the AY-9944 model, average ‘% SWD decrease’ was the response parameter.
(§6) Compounds may be examined for their efficacy as anticonvulsants using a number of different animal models, including the maximal electroshock (MES) model (human analog: tonic-clonic seizures) as described in Krall et al. (1978) and in Example 1 herein, the threshold pentylenetetrazole (PTZ) model (human analog: absence seizures) as described in Krall et al. (1978), the amygdala-kindling model (human analog: complex partial seizures with secondary generalization) as described in Albright & Burnham (1980), and the AY-9944 model (human analog, a typical absence, a component of the Lennox-Gastaut syndrome) as described in Cortez et al. (2001). The compounds may also be tested for their toxicity using standard assays, such as the standard rotorod assay as described in Dunham & Miya (1957) and Wlaz & Loscher (1998) and in Example 1 herein.

[8] = system: maximal electroshock (MES) model; test: maximal electroshock (MES) model, acetone (FIG. 3); assay type: in vivo
Description: as §4, §5, §6

[9] = system: seizures; test: anticonvulsant action of the ketone bodies; details: in vivo
Description: The present inventors have studied the mechanism of action of the ketogenic diet in a series of animal experiments.

[10] = system: electrically evoked seizure; details: exposed for 4 h to air containing acetone vapors; cited from earlier work
[11] = system: convulsions induced by electroshock; details: pretreatment, rats; cited from earlier work
[12] = system: amygdala-kindled seizures; test: amygdala-kindling model, acetone (FIG. 3)
Description: as §4, §5, §6

[13] = system: threshold pentylenetetrazole (PTZ) model; test: threshold pentylenetetrazole (PTZ) model, acetone (FIG. 3); assay type: in vivo
Description: as §4, §5, §6

[14] = system: semicarbizide-induced convulsions; details: given orally to mice; cited from earlier work
[15] = target: nicotinic acetylcholine receptors; details: inhibition of acetylcholine ion channel, Alifimoff et al. (1993); cited from earlier work
[16] = dose giving seizure protection in 50% subjects, MES test 30 min after intraperitoneal injection in oil, male CF-1 mice
[17] = mouse, in vivo, ip, read-out: TD50
[18] = Mus musculus, ip, 0.5 h, dose giving seizure protection in 50% subjects, MES test 30 min after intraperitoneal injection in oil, male CF-1 mice, read-out: ED50
[19] = given chronically for 28 days, rats

CCCCCC(=O)CCCCC [6-Undecanone]
TD50 [1]: Not Active | ED50 [2, 16]: Not Active | TI (therapeutic index) [2]: Not Active

COCC(C)=O [Methoxyacetone]
anticonvulsant activity [2]: absence of anticonvulsant activity

CCCCCCC(C)O (centres unmarked) [2-Octanol]
TD50 [1, 17]: 3900 µmol/kg | ED50 [2, 18]: 2000 µmol/kg | TI (therapeutic index) [2]: 1.9

CCCCC(C)=O [2-Hexanone]
TD50 [1, 17]: 4400 µmol/kg | ED50 ([2]; Mus musculus, ip, 0.5 h): 2400 µmol/kg | TI (therapeutic index) [2]: 1.8

CCCCCCCC(C)O (centres unmarked) [2-Nonanol]
TD50 [1, 17]: 5000 µmol/kg | ED50 [2, 18]: 1200 µmol/kg | TI (therapeutic index) [2]: 4.3

CCCCCCCCC(C)=O [2-Decanone]
TD50 [1]: Not Actuve | ED50 [2, 16]: Not Active | TI (therapeutic index) [2]: Not Active

CC(=O)CC(=O)[O-].[Na+] [sodium acetoacetate]
anticonvulsant effect [3]: most marked anticonvulsant effects

CCOC(=O)CC(C)=O [Ethyl acetoacetate]
anticonvulsant activity [2]: absence of anticonvulsant activity

CC(=O)CC(=O)O [Acetoacetate]
effect against pentylenetetrazole seizures [4]: not effective | effect against maximal electroshock seizures [5]: not effective

CCCCCC(C)=O [2-Heptanone]
TD50 [1, 17]: 6000 µmol/kg | LogED50 [2]: LogED50 = 0.4447 | ED50 [2, 18]: 2800 µmol/kg | TI (therapeutic index) [2]: 2.2

CCCCCCCCC=O [Nonanal]
anticonvulsant activity [2]: inactive as anticonvulsants

CCCCC(=O)CCCC [5-Nonanone]
TD50 [1, 17]: 13200 µmol/kg | ED50 [2, 18]: 3600 µmol/kg | TI (therapeutic index) [2]: 3.6

Acetone
protection against clonic-tonic convulsions [6]: protected | seizure suppression [7]: suppresses seizures | seizure suppression [8]: suppresses seizures | anticonvulsant [9]: anticonvulsant | TD50 [1]: 35200 µmol/kg | rats in which electrically evoked seizure is inhibited [10]: 50% | ED50 [2, 16]: 16200 µmol/kg | ED50 ([2]; dose giving seizure protection in 50% subjects, MES test 30 min after intraperitoneal injection in oil, male CF-1 mice, listed as acetone): 16000 µmol/kg | protection against clonic-tonic convulsions [11]: protected | seizure suppression ([12]; amygdala-kindling model): suppresses seizures | development of kindled seizures [12, 19]: significantly delayed | tolerability [12, 19]: well tolerated | effect against the kindled amygdala focus ([12]; sub-toxic doses): effective | seizure suppression [13]: suppresses seizures | semicarbizide-induced convulsions and mortality [14]: reduce

CCCCOC(C)=O [Butyl acetate]
anticonvulsant activity [2]: Series V - Inactive analogues

CCCCCC=O [Hexanal]
anticonvulsant activity [2]: inactive as anticonvulsants

CCCC(C)=O [2-Pentanone]
TD50 [1, 17]: 7200 µmol/kg | LogED50 [2]: LogED50 = 0.5176 | ED50 ([2]; Mus musculus, ip, 0.5 h): 3300 µmol/kg | TI (therapeutic index) [2]: 2.2

CC(=O)CC(C)(C)O [Diacetone]
anticonvulsant activity ([2]; listed as diacetone alcohol): absence of anticonvulsant activity

CCCC(CCC)C(=O)O [valproate]
TD50 [1, 17]: 3800 µmol/kg | ED50 [2, 18]: 1400 µmol/kg | TI (therapeutic index) [2]: 2.7

CCC(=O)CC [3-Pentanone]
TD50 [1, 17]: 7600 µmol/kg | LogED50 [2]: LogED50 = 0.5124 | ED50 [2, 18]: 3300 µmol/kg | TI (therapeutic index) [2]: 2.3

CCCCCCCCCC(C)=O [2-Undecanone]
TD50 [1]: Not Active | ED50 [2, 16]: Not Active | TI (therapeutic index) [2]: Not Active

CCC(C)O (centres unmarked) [2-butanol]
IC50 [15]: 60 to 70 mM

CC(O)CCCO (centres unmarked) [1,4-Pentanediol]
anticonvulsant activity [2]: absence of anticonvulsant activity

CCCCCC(=O)CCC [4-Nonanone]
TD50 [1, 17]: 16300 µmol/kg | ED50 [2, 18]: 5000 µmol/kg | TI (therapeutic index) [2]: 3.3

CC(O)CC(=O)O (stereo not drawn) [Beta-hydroxybutyrate, beta-hydroxybutyrate]
anticonvulsant effect [3]: not anticonvulsant

CCCCCC(C)O (centres unmarked) [2-Heptanol]
TD50 [1, 17]: 5100 µmol/kg | LogED50 [2]: LogED50 = 0.1197 | ED50 [2, 18]: 1300 µmol/kg | TI (therapeutic index) [2]: 3.9

CCCC(=O)CCC [4-Heptanone]
TD50 [1, 17]: 4700 µmol/kg | LogED50 [2]: LogED50 = 0.2981 | ED50 [2, 18]: 2000 µmol/kg | TI (therapeutic index) [2]: 2.4

2-Butanone
TD50 [1]: 10000 µmol/kg | ED50 [2, 16]: 5800 µmol/kg | TI (therapeutic index) [2]: 1.7

CCCCCCCC(C)=O [2-Nonanone]
TD50 [1, 17]: 15900 µmol/kg | ED50 [2, 18]: 1700 µmol/kg | TI (therapeutic index) [2]: 9.4

CC(=O)CC(=O)O [acetoacetic acid]
anticonvulsant effect [3]: most marked anticonvulsant effects

CCCCCCCCC(C)O (centres unmarked) [2-Decanol]
TD50 [1]: Not Active | ED50 [2, 16]: Not Active | TI (therapeutic index) [2]: Not Active

CCCCCCC(=O)CC [3-Nonanone]
TD50 [1, 17]: 20900 µmol/kg | ED50 [2, 18]: 9600 µmol/kg | TI (therapeutic index) [2]: 2.2

CCCCCCC(C)=O [2-Octanone]
TD50 [1, 17]: 6000 µmol/kg | ED50 [2, 18]: 3400 µmol/kg | TI (therapeutic index) [2]: 1.8

CCCC(C)O (centres unmarked) [2-Pentanol]
TD50 [1, 17]: 5700 µmol/kg | LogED50 [2]: LogED50 = 0.2331 | ED50 [2, 18]: 1600 µmol/kg | TI (therapeutic index) [2]: 3.7

CCCCCCCCC [Nonane]
anticonvulsant activity [2]: inactive as anticonvulsant
